From PubChem BioAssay (NCI)
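Following 48 hours of exposure in 96-well plates, responses at five concentrations were used to interpolate endpoints linearly. At the GI50, growth is halved. TGI denotes the concentration required for complete inhibition of growth.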

Tests used:
Experiment in all cases: NCI anticancer screen, dose series, 48 h
NCI-H226 lung = system: NCI-H226 lung
NCI-H23 lung = system: NCI-H23 lung
NCI-H460 lung = system: NCI-H460 lung
NCI-H522 lung = system: NCI-H522 lung
NCI/ADR-RES ovarian = system: NCI/ADR-RES ovarian
OVCAR-3 ovarian = system: OVCAR-3 ovarian
OVCAR-4 ovarian = system: OVCAR-4 ovarian
OVCAR-5 ovarian = system: OVCAR-5 ovarian
OVCAR-8 ovarian = system: OVCAR-8 ovarian
PC-3 prostate = system: PC-3 prostate
RPMI-8226 leukemia = system: RPMI-8226 leukemia
RXF 393 renal = system: RXF 393 renal
SF-268 CNS = system: SF-268 CNS
SF-295 CNS = system: SF-295 CNS
SF-539 CNS = system: SF-539 CNS
SK-MEL-2 melanoma = system: SK-MEL-2 melanoma
SK-MEL-28 melanoma = system: SK-MEL-28 melanoma
SK-MEL-5 melanoma = system: SK-MEL-5 melanoma
SK-OV-3 ovarian = system: SK-OV-3 ovarian
SN12C renal = system: SN12C renal
SNB-19 CNS = system: SNB-19 CNS
SNB-75 CNS = system: SNB-75 CNS
SW-620 colon = system: SW-620 colon
T-47D breast = system: T-47D breast
TK-10 renal = system: TK-10 renal
U251 CNS = system: U251 CNS
UACC-257 melanoma = system: UACC-257 melanoma
UACC-62 melanoma = system: UACC-62 melanoma
UO-31 renal = system: UO-31 renal

`CN(C)c1nc(NCCNS(=O)(=O)c2ccc(C(=O)/C=C/c3ccc(F)cc3)cc2)nc(Nc2ccc(F)cc2)n1` gave a GI50 (NCI-H226 lung) of 3.41 µM, a TGI (NCI-H226 lung) of 16.4 µM and a GI50 (NCI-H23 lung) of 4.17 µM. It also gave a TGI (NCI-H23 lung) of 15.6 µM, a GI50 (NCI-H460 lung) of 2.45 µM and a TGI (NCI-H460 lung) of 6.92 µM. It also gave a GI50 (NCI-H522 lung) of 2.81 µM, a TGI (NCI-H522 lung) of 8.9 µM and a GI50 (NCI/ADR-RES ovarian) of 3.25 µM. It also gave a TGI (NCI/ADR-RES ovarian) of 11.6 µM, a GI50 (OVCAR-3 ovarian) of 1.74 µM and a TGI (OVCAR-3 ovarian) of 3.24 µM. For the same molecule, the GI50 (OVCAR-4 ovarian) was 3.68 µM, the TGI (OVCAR-4 ovarian) was 15.6 µM and the GI50 (OVCAR-5 ovarian) was 3.39 µM. The TGI (OVCAR-5 ovarian) was 15 µM, the GI50 (OVCAR-8 ovarian) was 3.42 µM and the TGI (OVCAR-8 ovarian) was 13.9 µM. It also gave a GI50 (PC-3 prostate) of 2.76 µM, a TGI (PC-3 prostate) of 10.6 µM and a GI50 (RPMI-8226 leukemia) of 2.42 µM. For the same molecule, the TGI (RPMI-8226 leukemia) was 6.92 µM, the GI50 (RXF 393 renal) was 2.26 µM and the TGI (RXF 393 renal) was 7.51 µM. For the same molecule, the GI50 (SF-268 CNS) was 3.89 µM, the TGI (SF-268 CNS) was 16.4 µM and the GI50 (SF-295 CNS) was 3.4 µM. The TGI (SF-295 CNS) was 13 µM, the GI50 (SF-539 CNS) was 2.52 µM and the TGI (SF-539 CNS) was 6.78 µM. The GI50 (SK-MEL-2 melanoma) was 2.77 µM, the TGI (SK-MEL-2 melanoma) was 8.31 µM and the GI50 (SK-MEL-28 melanoma) was 3.6 µM. It also gave a TGI (SK-MEL-28 melanoma) of 13.7 µM, a GI50 (SK-MEL-5 melanoma) of 2.91 µM and a TGI (SK-MEL-5 melanoma) of 11.1 µM. The GI50 (SK-OV-3 ovarian) was 8.23 µM, the TGI (SK-OV-3 ovarian) was 21.6 µM and the GI50 (SN12C renal) was 1.7 µM. It also gave a TGI (SN12C renal) of 3.36 µM, a GI50 (SNB-19 CNS) of 4.58 µM and a TGI (SNB-19 CNS) of 16.8 µM. For the same molecule, the GI50 (SNB-75 CNS) was 2.88 µM, the TGI (SNB-75 CNS) was 16 µM and the GI50 (SW-620 colon) was 1.9 µM. It also gave a TGI (SW-620 colon) of 4.02 µM, a GI50 (T-47D breast) of 3.02 µM and a TGI (T-47D breast) of 11.7 µM. It also gave a GI50 (TK-10 renal) of 4.62 µM, a TGI (TK-10 renal) of 16.6 µM and a GI50 (U251 CNS) of 1.99 µM. It also gave a TGI (U251 CNS) of 4.41 µM, a GI50 (UACC-257 melanoma) of 3.61 µM and a TGI (UACC-257 melanoma) of 15.2 µM. For the same molecule, the GI50 (UACC-62 melanoma) was 3.57 µM, the TGI (UACC-62 melanoma) was 14.6 µM and the GI50 (UO-31 renal) was 2.9 µM. For the same molecule, the TGI (UO-31 renal) was 11.9 µM.
